Assays:
S1P3 human receptor = S1P3 human receptor (Homo sapiens (Human), UniProt Q99500); assay: S1P3 calcium mobilization in CHO K1 cells; format: cell-based; settings: NA = Not Active
Protocol: (§1) Independently, selected compounds were evaluated for S1P1 and S1P3 agonistic activity. The S1P1 assay system was GTPgama-S35 binding in membranes from CHO K1 cells, expressing S1P1 human receptor. The S1P3 assay system was calcium mobilization in CHO K1 cells expressing S1P3 human receptor. […] Compounds were tested initially at a concentration of 10 μM.

female BALB/c mice = assay: Lymphopenia assay; format: in vivo
Protocol: The study was performed to determine the ability of the compounds of the invention to induce lymphopenia in female BALB/c mice. On day 0, 27 female BALB/c mice were randomised based on body weight into nine groups of three mice each. Animals received a single i.p. administration of Test compounds and blood was collected by cardiac puncture either 6 or 24 h after administration. […] Changes to other haematological parameters were not observed.

[1] = test system: Human promyelocytic leukemia (HL-60) cells; assay: Cell viability (growth inhibition) assay, MTS; format: cell-based; settings: Homo sapiens, 50% reduction in cell viability of HL-60 cells, 48 hr incubation
Protocol: In order to measure the apoptotic effect of compounds on the metabolic activity of viable cells, the following assay was performed on Human promyelocytic leukemia cells. The assay utilises the tetrazolium compound (3-(4,5-dimethylthiazol-2-yl)-5-(3-carboxymethoxyphenyl)-2-(4-sulfophenyl)-2H-tetrazolium, inner salt; (MTS) and an electron coupling reagent (phenazine methosulfate; (PMS). MTS is bioreduced by cells into a formazan product the optical absorbance of which is measured directly from 96 well assay plates. The conversion of MTS into aqueous, soluble formazan is accomplished by dehydrogenase enzymes found in metabolically active cells. The quantity of formazan product as measured by the amount of 490 nm absorbance is directly proportional to the number of living cells in culture.
The assay was based on the National Cancer Institute (NCI) protocol, briefly, cells were grown in RPMI 1640 media supplemented with 10% FCS (foetal calf serum) and kept at 37° C. in a humidified environment with 5% CO2.
For the growth inhibition assay, Human promyelocytic leukemia (HL-60) cells were seeded at a density of 10,000 cells per well in 96 well plates in a volume of 100 μl and allowed to grow for 24 h. Compounds were serially diluted in DMSO at concentrations 100 fold higher than used in the assay (100×). Compounds were freshly prepared for each experiment. The 100× stocks were then diluted to 2× stocks into media and immediately, 100 μl of this 2× stock was added to the cells to create the desired final concentration of drug with a DMSO concentration of 1%. One row of each 96 well plate was treated with DMSO alone as a control. Cells were then incubated for a further 48 hr. Metabolic activity was determined using MTS (Promega) (90% 1.6 mg/ml MTS, 10% 1.6 mg/ml PMS (phenazine methosulfate) made fresh in PBS). 50 μl of this mix was added to all wells of the plates and allowed to incubate for 1.5-2 hr. Plates were shaken gently for about 15 min and absorbance was read on a plate reader at 490 nm. Averages were taken of the readings at each point with standard deviation and plotted using MicroCal Origin.

S1P1 human receptor = S1P1 human receptor (Homo sapiens (Human), UniProt P21453); assay: S1P1 [35S]-GTPgamaS binding assay (agonist activity); format: biochemical; settings: for EC50: GTPgamaS binding, agonist; for Efficacy (% of maximum): S1P1, relative to reference agonist S1P; for EC50S1P1/EC50S1P: potency at S1P1 relative to S1P
Sequence of S1P1 human receptor (P21453 whole entry): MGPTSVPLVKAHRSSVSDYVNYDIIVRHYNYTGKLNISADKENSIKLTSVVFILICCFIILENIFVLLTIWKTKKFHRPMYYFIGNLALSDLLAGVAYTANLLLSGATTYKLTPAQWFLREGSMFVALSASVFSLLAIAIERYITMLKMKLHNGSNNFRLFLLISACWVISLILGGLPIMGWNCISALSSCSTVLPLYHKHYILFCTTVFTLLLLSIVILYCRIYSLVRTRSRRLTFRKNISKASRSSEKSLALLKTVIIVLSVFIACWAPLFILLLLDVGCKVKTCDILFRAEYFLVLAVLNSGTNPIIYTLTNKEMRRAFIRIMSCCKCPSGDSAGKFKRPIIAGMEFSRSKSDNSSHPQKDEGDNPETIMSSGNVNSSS
Protocol: Selected Compounds of the Examples were evaluated at Millipore Corporation, USA, using S1P1 receptor; [^35S]-GTPgamaS binding assay. A [^35S]-GTPgamaS binding assay at Millipore was conducted by GPCR Profiler™ Custom Service Laboratory, Temecula, Calif., Millipore, Inc. to monitor dose-dependent agonist selectivity for selected Examples against the S1P1 receptors. The assay was completed with sample compounds subjected to an eight-point, four-fold dose response curve with starting concentration of 10 μM. Selectivity was determined upon initial addition of compounds followed by a 30 minute incubation at 30° C. Following compound incubation, bounded [^35S]-GTPgamaS was determined by filtration and scintillation counting.
as §1

[2] = 3 mg/kg and 30 mg/kg single i.p., 6 and 24 h, compared to untreated animals

Sequence of S1P3 human receptor (Q99500 whole entry): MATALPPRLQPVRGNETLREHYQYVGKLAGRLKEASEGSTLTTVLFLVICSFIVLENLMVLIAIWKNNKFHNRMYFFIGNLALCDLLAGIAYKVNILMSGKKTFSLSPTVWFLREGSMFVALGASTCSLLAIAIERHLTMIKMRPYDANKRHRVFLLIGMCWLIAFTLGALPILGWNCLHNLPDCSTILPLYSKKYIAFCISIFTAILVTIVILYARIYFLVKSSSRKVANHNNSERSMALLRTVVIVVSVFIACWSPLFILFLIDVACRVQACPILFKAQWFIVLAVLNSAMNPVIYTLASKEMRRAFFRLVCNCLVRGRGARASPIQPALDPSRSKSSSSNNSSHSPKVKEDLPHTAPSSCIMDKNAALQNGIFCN

SMILES	EC50 (S1P3 human receptor) [nM]	lymphocyte counts (female BALB/c mice; [2])	total white blood cell counts (female BALB/c mice; [2])	Changes to other haematological parameters (female BALB/c mice; single i.p., 6 or 24 h)	IC50 [1] [nM]	EC50 (S1P1 human receptor) [nM]	Efficacy (% of maximum) (S1P1 human receptor) [%]	EC50S1P1/EC50S1P (S1P1 human receptor)
CCOc1ccc(-c2nc(-c3cccc4c3CCN4CC(N)(CO)CO)no2)cc1OCC [Example 34, 2-Amino-2-((4-(5-(3,4-diethoxyphenyl)-1,2,4-oxadiazol-3-yl)indolin-1-yl)methyl)propane-1,3-diol]	1290	decrease	decrease	not observed	1820 ± 500	6.8	92	0.4
CCOc1ccc(-c2nc(-c3ccc4c(c3)CCN4CC(N)(CO)CO)no2)cc1OCC [Example 40, 2-Amino-2-((5-(5-(3,4-diethoxyphenyl)-1,2,4-oxadiazol-3-yl)indolin-1-yl)methyl)propane-1,3-diol]	> 15600				3100	344	117	36.41
CCCc1ccc(-c2nc(-c3cccc4c3CCN4CC(N)(CO)CO)no2)cc1CCC [Example 47, 2-Amino-2-((4-(5-(3,4-dipropylphenyl)-1,2,4-oxadiazol-3-yl)indolin-1-yl)methyl)propane-1,3-diol]	965					2.4	94	0.33
CCOc1ccc(-c2nc(-c3ccc4c(c3)CN(CC(N)(CO)CO)C4)no2)cc1OCC [Example 65, 2-Amino-2-((5-(5-(3,4-diethoxyphenyl)-1,2,4-oxadiazol-3-yl)isoindolin-2-yl)methyl)propane-1,3-diol]	390					7.4	97	0.16

Reference: patent US9181182B2, “S1P receptors modulators” (Akaal Pharma PTY LTD, priority 2008, dated 2015)
